Patent US5304125A, “Apparatus for administering solid particulate aerosols to the lungs” (priority 1993, dated 1994)
Where a name gives a salt, the structure may show the parent alone.

Experiments:
[1] = system: luminal membrane of airway epithelia; conditions: applied to the luminal membrane of airway epithelia; cited from earlier work
[2] = Aerosol size distribution (Andersen impactor); format: physicochemical; conditions: 60 Lpm
Procedure: FIG. 6 is a drawing of the experimental apparatus used in these studies. For the SpinhalerTM tests, lactose was used as a flow aid to dispense amiloride from the capsules. Before use, the lactose was not micronized, but was shaken through a 400 mesh sieve so that all lactose particles used were smaller than 37 μm. Amiloride was then mixed with the lactose in a 1:1 ratio and the material was […] through the 400 mesh sieve to break apart any agglomerates. Then 58 mg of the […] mixture of amiloride and lactose was placed in capsule with pre-drilled holes and loaded into the SpinhalerTM. Air at 60 liters per minute (Lpm) flowed in succession through the aerosol generator 60 (a SpinhalerTM), an impactor 10 as described in connection with FIGS. 1-4 above, a glass "throat" 61, and a plastic "distal pharynx" 62. Within the distal pharynx an isokinetic sample at 28.3 Lpm flowed through a nozzle 63 and into an Andersen impactor 64. The remaining 31.7 Lpm of the original 60 Lpm was drawn off through a bypass line 65 that led to a filter 66, a rotameter 67, and to a vacuum (not illustrated). Gas that left the Andersen impactor flowed through a filter 68 to a second rotameter 69 to vacuum. To conduct a test, vacuum was applied simultaneously to both the Andersen impactor and the bypass lines. Air flow at 60 Lpm was maintained for four seconds to simulate an inspiration; six inspirations were used for each capsule of drug tested. […] This amiloride was then packaged in an MDI with Freon propellants (trichlorofluoromethane and dichlorodifluoromethane) and a surfactant (sorbitan trioleate), added to break up droplets or aggregates of solid particles. A NebuhalerTM spacer 27 cm long, (see Newman, 39 Thorax 935 (1984)), was attached to the MDI to allow evaporation of the propellant and to remove larger particles by sedimentation. Prior to each release of drug from the MDI, the canister was shaken vigorously to achieve homogeneity. […] Leakage of some liquid from the MDI canisters between the filling time and the actual usage would have increased the concentration of amiloride without affecting internal canister pressure. […] The fractional efficiency of the impactor was determined by comparing the mass of amiloride collected on each stage of the Andersen impactor with and without the impactor in place. […] The components analyzed for amiloride included the SpinhalerTM and its used capsule, the NebuhalerTM spacer when used, the impactor when used, the glass throat, the distal pharynx, and the sidearm filter, plus the entry nozzle, six individual plates, and final filter of the Andersen impactor. Washes from each of these components were then analyzed for amiloride. […]

[3] = Fate/dose of aerosolized amiloride (respirable, oropharyngeal, systemic) from Spinhaler or MDI in throat/Andersen impactor apparatus
Procedure: The present invention was tested using two devices that generate dry particle aerosols, the Spinhaler™ from Fisons, Inc., See Bell, J. Pharm. Sci. 60, 1559 (1971); Cox, Brit. Med. J. 2, 634 (1969), and the metered-dose inhaler (MDI). The Spinhaler™ consists of a rotor that holds a gelatin capsule containing the dry amiloride powder. After the capsule is pierced, the patient inhales through the mouthpiece causing the rotor to spin and vibrate at a high speed, dispensing and dispersing the drug. The MDI consists of a pressurized canister containing the drug, the propellant, and a surfactant. When activated, the MDI spray disperses the drug within large droplets of propellant into a spacer. Evaporation of the propellant and sedimentation of the larger particles yield dry drug that is inhaled by the patient.
FIG. 6 is a drawing of the experimental apparatus used in these studies. For the Spinhaler™ tests, lactose was used as a flow aid to dispense amiloride from the capsules. Before use, the lactose was not micronized, but was shaken through a 400 mesh sieve so that all lactose particles used were smaller than 37 μm. Amiloride was then mixed with the lactose in a 1:1 ratio and the material was reshaken through the 400 mesh sieve to break apart any agglomerates. Then 58 mg of the resieved mixture of amiloride and lactose was placed in capsule with pre-drilled holes and loaded into the Spinhaler™. Air at 60 liters per minute (Lpm) flowed in succession through the aerosol generator 60 (a Spinhaler™), an impactor 10 as described in connection with FIGS. 1-4 above, a glass "throat" 61, and a plastic "distal pharynx" 62. Within the distal pharynx an isokinetic sample at 28.3 Lpm flowed through a nozzle 63 and into an Andersen impactor 64. The remaining 31.7 Lpm of the original 60 Lpm was drawn off through a bypass line 65 that led to a filter 66, a rotameter 67, and to a vacuum (not illustrated). Gas that left the Andersen impactor flowed through a filter 68 to a second rotameter 69 to vacuum. To conduct a test, vacuum was applied simultaneously to both the Andersen impactor and the bypass lines. Air flow at 60 Lpm was maintained for four seconds to simulate an inspiration; six inspirations were used for each capsule of drug tested.
Amiloride used with the MDI was first milled until essentially all particles were smaller than 2.6 μm in diameter as determined using an optical microscope. This amiloride was then packaged in an MDI with Freon propellants (trichlorofluoromethane and dichlorodifluoromethane) and a surfactant (sorbitan trioleate), added to break up droplets or aggregates of solid particles. A Nebuhaler™ spacer 27 cm long, (see Newman, 39 Thorax 935 (1984)), was attached to the MDI to allow evaporation of the propellant and to remove larger particles by sedimentation. Prior to each release of drug from the MDI, the canister was shaken vigorously to achieve homogeneity. In each test, the MDI aerosol was dispersed into the spacer via a 50 μl metering valve designed to deliver 1 mg amiloride per puff; however, the actual delivery was closer to 3 mg/puff as determined by spectrophotometric analysis of all amiloride collected as discussed below. Leakage of some liquid from the MDI canisters between the filling time and the actual usage would have increased the concentration of amiloride without affecting internal canister pressure. Following the dispersion and a one second delay, vacuum was applied to both the Andersen impactor and bypass lines and maintained for four seconds. This procedure was repeated for a total of six aerosol puffs from the MDI for each test The MDI tests, like the Spinhaler™ tests, used a total flow of 60 Lpm; 28.3 to the Andersen impactor and […] through the bypass line.
Tests were conducted with the MDI and spacer both with and without the impactor. […]

[4] = in vivo
cystic fibrosis = conditions: liquid aerosol; Knowles, N. Engl. J. Med. (1990); cited from earlier work
[5] = system: Na^+ transport rates by cystic fibrosis airway epithelia; assay: Ussing chamber bioassay of Na+ transport (short circuit current) in freshly excised human cystic fibrosis airway epithelia; format: cell-based
Description: Freshly excised human cystic fibrosis airway […] used to assay bioactive amiloride in solution. Freshly excised tissues is obtained from the Operating Room at The University of North Carolina Hospitals as previously described. R. Boucher, M. Stutts, M. Knowles, L. Cantley, and J. Gatzy, Na+ transport in cystic fibrosis respiratory epithelia. Abnormal basal rate and response to adenylate cyclase activation. J. Clin. Invest. 78, 1245-1252 (1986). The tissue preparation is mounted in a minature Ussing chamber that has 6 ml of solution bathing each (mucosal; basolateral) surface of the preparation. The solution is a Krebs-Ringer bicarbonate solution which approximates the ionic composition of plasma. This solution is warmed (37°) and circulated with a gas lift (95% oxygen, 5% CO2) system. Mixing time in this chamber has been previously measured by calibration with dyes (blue dextran) and is five seconds or less. The measurement of sodium transport rates is performed using a voltage clamp that is interfaced to the tissue preparation by pairs of potential sensing electrodes and current passing electrodes. The current required to null the transepithelial potential difference to zero is the short circuit current, which in human airway tissue is an accurate index of sodium transport rates. See R. Boucher et al., supra. […] This experiment was conducted as described above. […]

SMILES: N=C(N)NC(=O)c1nc(Cl)c(N)nc1N [amiloride]
- inhibition of Na^+ and water absorption [1]: inhibit Na^+ and water absorption
- mass median diameter (mmd) ([2]; MDI with spacer and impactor): about 3 um
- mass median diameter (mmd) ([2]; MDI with spacer, no impactor): about 6 um
- mass median diameter (mmd) ([2]; Spinhaler alone): > 10 um
- mass median diameter (mmd) ([2]; Spinhaler with impactor): about 4 um
- oropharyngeal deposition, fraction of generated amiloride [3]: 1.6%
- systemic dose relative to maximum [3]: ≤ 20 mg/day
- total systemic daily dose [3]: 16.7 mg
- oropharyngeal deposition (in words) ([3]; MDI or Spinhaler without spacer or impactor): high
- systemic dose relative to maximum (in words) ([3]; MDI with spacer alone, 12 mg/day respirable): somewhat higher than the maximum
- oropharyngeal dose (in words) ([3]; Spinhaler alone): far too high
- systemic dose (in words) ([3]; Spinhaler alone): excessive
- oropharyngeal deposition (in words) ([3]; with spacer or impactor, most particles larger than about 5 μm removed): decreases substantially
- maximum systemic dose [4]: 20 mg daily
- optimal respirable dose [4]: 8 to 12 mg daily
- clinical benefit (cystic fibrosis): confirmed clinical benefit

SMILES: N=C(N)NC(=O)c1nc(Cl)c(N)nc1N [amiloride hydrochloride]
- time to complete inhibition of ISC (Na^+ transport) ([5]; Krebs-Ringer bicarbonate, 37°, human CF airway epithelia, dry powder particle size about 1 μm): about sixty
- timed release effect (dissolution of solid particles) ([5]; respirable particles ~1 μm, aqueous solution approximating the ionic strength of plasma): dissolved slowly over time
